# Literature values in US11911501B1, “Biocompatible resin composition and method of manufacturing dissolvable microneedles for transdermal delivery using biocompatible resin” (Florida A&M University, priority 2020, dated 2024).
# Test system: clonal SV 40 large T-antigen transfected human pulp-derived cells (tHPC)
# Conditions: reference [1]
smiles,measurement,value
"Cc1cc(C)c(C(=O)P(=O)(c2ccccc2)c2ccccc2)c(C)c1 [TPO, diphenyl(2,4,6-trimethylbenzoyl)phosphine oxide]",toxicity,cause toxicity
